{"source": "ChEMBL document CHEMBL5338726", "about": "“Characterization of Chlorogenic Acid as a Two-Photon Fluorogenic Probe that Regulates Glycolysis in Tumor Cells under Hypoxia” (J Med Chem, 2023)", "key": {"[1]": {"test_system": "A-375", "assay": "Antiproliferative activity against human A-375 cells assessed as reduction in colony number at 1.25 to 10 uM measured after 10 days under normoxia condition by crystal violet staining based analysis", "type": "functional, cell-based", "settings": "dose 1.25-10 µM, time 10.0 day"}, "[2]": {"assay": "Toxicity in BALB/c-nu mouse xenografted with human A-375 cells assessed as effect on body weight at 25 to 50 mg/kg, ip administered once daily fo 18 days post treatment", "type": "organism-based", "settings": "in vivo, 432 h, dose 25-50 mg/kg, time 18 day"}, "[3]": {"test_system": "A-375", "assay": "Reduction in […] O2 level in human A-375 cells at 2.5 to 10 uM incubated for 72 hrs under hypoxia condition by DHE based flow cytometry analysis", "type": "functional, cell-based", "settings": "dose 2.5-10 µM"}, "[4]": {"test_system": "A-375", "assay": "Reduction in ATP production in human A-375 cells at upto 10 uM incubated for 6 hrs under hypoxia condition by real-time ATP rate assay", "type": "functional, cell-based"}, "[5]": {"test_system": "A-375", "assay": "Increase in oxygen consumption rate in human A-375 cells at upto 10 uM measured after 6 hrs under normoxia condition", "type": "functional, cell-based"}, "[6]": {"test_system": "A-375", "assay": "Antiproliferative activity against human A-375 cells assessed as reduction in cell growth at 1.25 to 10 uM incubated for 72 hrs under normoxia condition by MTT assay", "type": "functional, cell-based", "settings": "dose 1.25-10 µM"}, "[7]": {"test_system": "A-375", "assay": "Reduction in AMPK phosphorylation level in human A-375 cells at upto 20 uM incubated for 72 hrs under normoxic condition by Western blot analysis", "type": "functional, cell-based"}, "[8]": {"test_system": "A-375", "assay": "Antiproliferative activity against human A-375 cells assessed as reduction in cell growth at 1.25 to 10 uM incubated for 72 hrs under hypoxia condition by MTT assay", "type": "functional, cell-based", "settings": "dose 1.25-10 µM"}, "[9]": {"test_system": "A-375", "assay": "Radical scavenging activity in 2-ME treated oxidative stress induced human A-375 cells assessed as increase in fluorescent signal at 10 uM incubated for 30 mins followed by washout and addition of superoxide dismutase by confocal microscopic analysis", "type": "functional, cell-based"}, "[10]": {"test_system": "A-375", "assay": "Reduction in extracellular acidification rates in human A-375 cells at upto 10 uM incubated for 6 hrs under hypoxia condition", "type": "functional, cell-based"}, "[11]": {"assay": "Drug localization in 2-ME treated human A-375 cells assessed as fluorescence in mitochondrial apparatus at 10 uM incubated for 30 mins by mito-tracker green dye based confocal microscopy analysis", "type": "ADME, cell-based", "settings": "a-375, 0.5 h"}, "[12]": {"test_system": "A-375", "assay": "Increase in oxygen consumption rate in human A-375 cells at upto 10 uM measured after 6 hrs under hypoxia condition", "type": "functional, cell-based"}, "[13]": {"test_system": "A-375", "assay": "Reduction in […] O2 level in human A-375 cells at 2.5 to 10 uM incubated for 72 hrs under normoxia condition by DHE based flow cytometry analysis", "type": "functional, cell-based", "settings": "dose 2.5-10 µM"}, "[14]": {"test_system": "A-375", "assay": "Antitumor activity in human A-375 cells xenografted in BALB/c-nu mouse model assessed as inhibition of tumor growth at 25 to 50 mg/kg, ip administered once daily and measured every 3 days for 18 days", "type": "functional, organism-based", "settings": "dose 25-50 mg/kg, time 18.0 day"}, "[15]": {"test_system": "A-375", "assay": "Antiproliferative activity against human A-375 cells assessed as reduction in colony number at 1.25 to 10 uM measured after 10 days under hypoxia condition by crystal violet staining based analysis", "type": "functional, cell-based", "settings": "dose 1.25-10 µM, time 10.0 day"}, "[16]": {"assay": "Drug localization in 2-ME treated human A-375 cells assessed as fluorescence in lysosomes at 10 uM incubated for 30 mins by lyso-tracker red dye based confocal microscopy analysis", "type": "ADME, cell-based", "settings": "a-375, 0.5 h"}, "[17]": {"test_system": "A-375", "assay": "Radical scavenging activity in 2-ME treated oxidative stress induced tumor bearing BALB/c-nu mouse xenografted in human A-375 cells assessed as increase in fluorescence intensity at 10 uM incubated for 30 mins by confocal microscopic analysis", "type": "functional, cell-based"}, "[18]": {"test_system": "A-375", "assay": "Radical scavenging activity in 2-ME treated oxidative stress induced tumor bearing BALB/c-nu mouse xenografted in human A-375 cells assessed as increase in fluorescence intensity at 10 uM incubated for 30 mins followed by washout and addition of ascorbic acid by confocal microscopic analysis", "type": "functional, cell-based"}, "[19]": {"test_system": "A-375", "assay": "Reduction in extracellular acidification rates in human A-375 cells at upto 10 uM incubated for 6 hrs under normoxia condition", "type": "functional, cell-based"}, "[20]": {"test_system": "A-375", "assay": "Radical scavenging activity in 2-ME treated oxidative stress induced human A-375 cells assessed as increase in fluorescent signal at 10 uM incubated for 30 mins by confocal microscopic analysis", "type": "functional, cell-based"}, "[21]": {"test_system": "A-375", "assay": "Radical scavenging activity in 2-ME treated oxidative stress induced human A-375 cells assessed as increase in fluorescent signal at 10 uM incubated for 30 mins followed by washout and addition of ascorbic acid by confocal microscopic analysis", "type": "functional, cell-based"}, "[22]": {"test_system": "A-375", "assay": "Reduction in AMPK phosphorylation level in human A-375 cells at upto 20 uM incubated for 72 hrs under hypoxic condition by Western blot analysis", "type": "functional, cell-based"}, "[23]": {"test_system": "A-375", "assay": "Reduction in ATP production in human A-375 cells at upto 10 uM incubated for 6 hrs under normoxia condition by real-time ATP rate assay", "type": "functional, cell-based"}, "[24]": {"test_system": "A-375", "assay": "Antitumor activity in human A-375 cells xenografted in BALB/c-nu mouse model assessed as decrease in AMPKalpha phosphorylation 50 mg/kg, ip by Western blot analysis", "type": "functional, organism-based"}}, "note": "Calls of active or inactive are those of the source. The calls are words filed in the database; no cut-off is given here."}
{"molecule": "O=C(/C=C/c1ccc(O)c(O)c1)O[C@@H]1C[C@](O)(C(=O)O)C[C@@H](O)[C@H]1O", "note": "[CHLOROGENIC ACID]", "values": [{"measurement": "Activity", "setting": "[1]", "value": "inactive"}, {"measurement": "Activity", "setting": "[2]", "value": "Non-Toxic"}, {"measurement": "Activity", "setting": "[3]", "value": "Active"}, {"measurement": "Activity", "setting": "[4]", "value": "Active"}, {"measurement": "Activity", "setting": "[5]", "value": "inactive"}, {"measurement": "Activity", "setting": "[6]", "value": "inactive"}, {"measurement": "Activity", "setting": "[7]", "value": "inactive"}, {"measurement": "Activity", "setting": "[8]", "value": "Active"}, {"measurement": "Activity", "setting": "[9]", "value": "inactive"}, {"measurement": "Activity", "setting": "[10]", "value": "Active"}, {"measurement": "Drug uptake", "setting": "[11]", "value": "Active"}, {"measurement": "Activity", "setting": "[12]", "value": "Active"}, {"measurement": "Activity", "setting": "[13]", "value": "inactive"}, {"measurement": "Activity", "setting": "[14]", "value": "Active"}, {"measurement": "Activity", "setting": "[15]", "value": "Active"}, {"measurement": "Drug uptake", "setting": "[16]", "value": "Not Active"}, {"measurement": "Activity", "setting": "[17]", "value": "Active"}, {"measurement": "Activity", "setting": "[18]", "value": "inactive"}, {"measurement": "Activity", "setting": "[19]", "value": "inactive"}, {"measurement": "Activity", "setting": "[20]", "value": "Active"}, {"measurement": "Activity", "setting": "[21]", "value": "inactive"}, {"measurement": "Activity", "setting": "[22]", "value": "Active"}, {"measurement": "Activity", "setting": "[23]", "value": "inactive"}, {"measurement": "Activity", "setting": "[24]", "value": "Active"}]}
